# From patent US9494594B2, “Method of determining administration effect in cancer chemotherapy with S-1” (National University Corporation Chiba University, priority 2012, dated 2016)
# System: shDCN cell line and Mock cell line of anticancer drug-resistant cell lines Sa-3R and KB-R
# Assay: 5-FU sensitivity test, MTS cell survival assay
# Type: cell-based
# Details: 72 hours incubation, shDCN vs Mock cell line
# Protocol: Next, the shDCN cell line and the Mock cell line were cultured in the presence of an anticancer drug, and a change in the degree of resistance to the anticancer drug by the suppressed expression of DCN was verified by measuring a change in cell growth ability. 5-FU was used as the anticancer drug.
# The shDCN cell line and the Mock cell line were each seeded to a 96-well plate at a density of 2×10^3 cells/100 μl of medium/well, and simultaneously mixed with 10 μl of a medium supplemented with 5-FU. The concentration of 5-FU was adjusted so that the final concentration was 1 μM to 1×10^4 μM. After that, the cells were incubated for 72 hours, and a cell survival rate was evaluated by an MTS assay. An MTS solution (product of Promega Corporation) was added at a volume of 10 μl/well, and the cells were incubated for 4 hours. After that, counting was performed with a plate reader at a wavelength of 490 nm. A 50% survival concentration (IC50) was determined based on the results of, the MTS assay.
compound,measurement,value
"O=c1[nH]cc(F)c(=O)[nH]1 [5-FU, 5-fluorouracil]",IC50 value of shDCN cell line relative to Mock cell line (increase in sensitivity to 5-FU),about 10 times lower
